According to ChEMBL document CHEMBL3779773, “A unique macrolactam derivative via a [4+6]-cycloaddition from Streptomyces niveus” (Bioorg Med Chem Lett, 2016):
Values after ≈ are worked out from the molar mass of the structure shown. Values belong to the molecule of their own block, whether it stands above or below them. Active and inactive are the calls of the source. The rule behind the calls is not given here.

Legend:
[1] = Cytotoxicity against human […] cells assessed as growth inhibition after 72 hrs by MTT assay; assay type: functional, cell-based
[2] = Cytotoxicity against human HELF cells assessed as growth inhibition after 72 hrs by MTT assay; assay type: cell-based
[3] = Cytotoxicity against human Caco2 cells assessed as growth inhibition after 72 hrs by MTT assay; assay type: functional, cell-based; conditions: Caco-2, 72 h
[4] = Cytotoxicity against human HCT116 cells assessed as growth inhibition after 72 hrs by MTT assay; assay type: functional, cell-based; conditions: HCT-116, 72 h
[5] = Cytotoxicity against human H460 cells assessed as growth inhibition after 72 hrs by MTT assay; assay type: functional, cell-based; conditions: NCI-H460, 72 h
[6] = tested on: HepG2; test: Cytotoxicity against human HepG2 cells assessed as growth inhibition after 72 hrs by MTT assay; assay type: functional, cell-based; conditions: HepG2, 72 h
[7] = tested on: HCT-116; test: Cytotoxicity against human HCT116 cells assessed as cell viability after 24 to 72 hrs by MTT assay; assay type: functional, cell-based
[8] = tested on: BGC832; test: Cytotoxicity against human […] cells assessed as cell viability after 24 to 72 hrs by MTT assay; assay type: functional, cell-based
[9] = tested on: NCI-H460; test: Cytotoxicity against human H460 cells assessed as cell viability at 1.2 to 100 uM by MTT assay; assay type: functional, cell-based; conditions: TDE = time-dependent effect
[10] = tested on: Candida albicans; test: Antimicrobial activity against Candida albicans by micro dilution method; assay type: functional, organism-based
[11] = tested on: BGC832; test: Cytotoxicity against human […] cells assessed as cell viability at 1.2 to 100 uM by MTT assay; assay type: functional, cell-based; conditions: TDE = time-dependent effect
[12] = tested on: Caco-2; test: Cytotoxicity against human Caco2 cells assessed as cell viability at 1.2 to 100 uM by MTT assay; assay type: functional, cell-based; conditions: TDE = time-dependent effect
[13] = tested on: Caco-2; test: Cytotoxicity against human Caco2 cells assessed as cell viability after 24 to 72 hrs by MTT assay; assay type: functional, cell-based
[14] = tested on: HepG2; test: Cytotoxicity against human HepG2 cells assessed as cell viability after 24 to 72 hrs by MTT assay; assay type: functional, cell-based
[15] = tested on: NCI-H460; test: Cytotoxicity against human H460 cells assessed as cell viability after 24 to 72 hrs by MTT assay; assay type: functional, cell-based
[16] = tested on: Bacillus subtilis; test: Antimicrobial activity against Bacillus subtilis after 24 hrs using MTT reagent by micro dilution method; assay type: functional
[17] = tested on: Staphylococcus aureus; test: Antimicrobial activity against Staphylococcus aureus after 24 hrs using MTT reagent by micro dilution method; assay type: functional, organism-based
[18] = tested on: HepG2; test: Cytotoxicity against human HepG2 cells assessed as cell viability at 1.2 to 100 uM by MTT assay; assay type: functional, cell-based; conditions: TDE = time-dependent effect
[19] = tested on: Escherichia coli; test: Antimicrobial activity against Escherichia coli after 24 hrs using MTT reagent by micro dilution method; assay type: functional, organism-based
[20] = tested on: Aspergillus niger; test: Antimicrobial activity against Aspergillus niger by micro dilution method; assay type: functional, organism-based
[21] = tested on: HCT-116; test: Cytotoxicity against human HCT116 cells assessed as cell viability at 1.2 to 100 uM by MTT assay; assay type: functional, cell-based; conditions: TDE = time-dependent effect
[22] = Acute toxicity in ip dosed mouse; assay type: organism-based; conditions: in vivo

SMILES: COc1cccc2c1C(=O)c1c(O)c3c(c(O)c1C2=O)C[C@@](O)(C(=O)CO)C[C@@H]3O[C@H]1C[C@H](N)[C@H](O)[C@H](C)O1 [DOXORUBICIN]
IC50 [1]: 1.48 µM | IC50 [2]: 7.31 µM | IC50 [3]: 0.96 µM | IC50 [4]: 0.74 µM | IC50 [5]: 0.98 µM

MIC [16]: 43.9 µg/mL (≈ 99.9 µM)
SMILES: CCC/C=C/CC1CC(O)[C@@H](O)[C@@H]2/C(C)=C/[C@H]3C=C[C@H]4O[C@H]4[C@@H]3/C(C)=C/C=C\[C@@H]2C(=O)N1 (some centres not stated)
IC50 [6]: 15 µM | IC50 [1]: 13.1 µM | Activity [7]: Dose-dependent effect | Activity [8]: Dose-dependent effect | Activity [9]: tde | Activity [10]: inactive | Activity [11]: tde | IC50 [2]: 46.5 µM | Activity [12]: tde | Activity [13]: Dose-dependent effect | IC50 [3]: 15 µM | IC50 ([4]; read-out: IC50): 8.03 µM | Activity [14]: Dose-dependent effect | Activity [15]: Dose-dependent effect | IC50 [5]: 3.76 µM | Activity [17]: inactive | Activity [18]: tde | Activity [19]: inactive | Activity [20]: inactive | Activity [21]: tde

SMILES: CCCCCCC1CC(=O)CCCC(O)CC(=O)C2=C(O)C(OC3CC(OC)C(O)C(C)O3)CC2\C=C(C)/C=C/C=C/C(=O)N1 (configuration not stated)
LD50 [22]: > 100 mg/kg
